Test results: PubChem BioAssay AID248 (DTP/NCI, 2004)
Where “and” joins values, the source holds several entries; their conditions need not be identical. Identical values can stand only once. Inconclusive results and toxic doses are left out. Cut-off read from the data, not from the text of the source: active = T/C of 150% or more; inactive = T/C below 125%.

Test system: L1210 leukemia ip in BDF1 mice, survival T/C
Assay: NCI In Vivo Anticancer Drug Screen. Data for tumor model L1210 Leukemia (intraperitoneal) in B6D2F1 (BDF1) mice
Details: endpoint: mean survival time, higher = longer survival
Outline: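 Read-out is survival time, reported as the treated-group measurement over the vehicle-control measurement.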

[1] = dose: 100.0 mg/kg/injection, schedule: Q01DX001 (ip), vehicle: saline
[2] = dose: 200.0 mg/kg/injection, schedule: Q01DX001 (ip), vehicle: saline
[3] = dose: 25.0 mg/kg/injection, schedule: Q01DX009 (ip), vehicle: Klucel (hydroxypropylcellulose) (HPC)
[4] = dose: 50.0 mg/kg/injection, schedule: Q01DX009 (ip), vehicle: Klucel (hydroxypropylcellulose) (HPC)
[5] = dose: 100.0 mg/kg/injection, schedule: Q04DX003 (ip), vehicle: Klucel (hydroxypropylcellulose) (HPC)
[6] = dose: 200.0 mg/kg/injection, schedule: Q04DX003 (ip), vehicle: Klucel (hydroxypropylcellulose) (HPC)
[7] = dose: 400.0 mg/kg/injection, schedule: Q04DX003 (ip), vehicle: Klucel (hydroxypropylcellulose) (HPC)
[8] = dose: 100.0 mg/kg/injection, schedule: Q04DX003 (ip), vehicle: saline with Tween-80
[9] = dose: 200.0 mg/kg/injection, schedule: Q04DX003 (ip), vehicle: saline with Tween-80
[10] = dose: 400.0 mg/kg/injection, schedule: Q04DX003 (ip), vehicle: saline with Tween-80
[11] = dose: 50.0 mg/kg/injection, schedule: Q01DX009 (ip), vehicle: saline
[12] = dose: 100.0 mg/kg/injection, schedule: Q01DX009 (ip), vehicle: saline
[13] = dose: 100.0 mg/kg/injection, schedule: Q04DX003 (ip), vehicle: saline
[14] = dose: 100.0 mg/kg/injection, schedule: Q01DX009 (ip), vehicle: Klucel (hydroxypropylcellulose) (HPC)
[15] = dose: 100.0 mg/kg/injection, schedule: Q04DX002 (ip), vehicle: Klucel (hydroxypropylcellulose) (HPC)
[16] = dose: 200.0 mg/kg/injection, schedule: Q04DX002 (ip), vehicle: Klucel (hydroxypropylcellulose) (HPC)

Measured: T/C

O=C1C=C2C=CC3CC2(O1)C1CCCCN31 (stereo not given)
inactive: dose: 10.0 mg/kg/injection, schedule: Q01DX001 (ip), vehicle: saline 105 % of control | dose: 20.0 mg/kg/injection, schedule: Q01DX001 (ip), vehicle: saline 100 % of control | [1] 105 % of control and 102 % of control | [2] 104 % of control and 102 % of control

Oc1ccc2ccccc2c1N=Nc1nccs1
inactive: dose: 12.5 mg/kg/injection, schedule: Q01DX009 (ip), vehicle: Klucel (hydroxypropylcellulose) (HPC) 96 % of control | [3] 95 % of control | [4] 101 % of control | dose: 100.0 mg/kg/injection, schedule: Q01DX001 (ip), vehicle: Klucel (hydroxypropylcellulose) (HPC) 94 % of control | [5] 100 % of control | dose: 200.0 mg/kg/injection, schedule: Q01DX001 (ip), vehicle: Klucel (hydroxypropylcellulose) (HPC) 101 % of control | [6] 96 % of control | dose: 400.0 mg/kg/injection, schedule: Q01DX001 (ip), vehicle: Klucel (hydroxypropylcellulose) (HPC) 98 % of control | [7] 94 % of control

NC(=O)N/N=C(\CF)C(=O)O
inactive: dose: 6.0 mg/kg/injection, schedule: Q01DX009 (ip), vehicle: Klucel (hydroxypropylcellulose) (HPC) 98 % of control | dose: 12.0 mg/kg/injection, schedule: Q01DX009 (ip), vehicle: Klucel (hydroxypropylcellulose) (HPC) 110 % of control | dose: 24.0 mg/kg/injection, schedule: Q01DX009 (ip), vehicle: Klucel (hydroxypropylcellulose) (HPC) 101 % of control | dose: 48.0 mg/kg/injection, schedule: Q01DX009 (ip), vehicle: Klucel (hydroxypropylcellulose) (HPC) 102 % of control

O=C(O)CC(C(=O)O)c1ccccc1 (stereo not given)
inactive: [8] 88 % of control | [9] 103 % of control | [10] 106 % of control

NC1CCC(CC2CC3CCC2C3)CC1 (stereo not given)
inactive: dose: 12.5 mg/kg/injection, schedule: Q01DX009 (ip), vehicle: saline 98 % of control | dose: 25.0 mg/kg/injection, schedule: Q01DX009 (ip), vehicle: saline 91 % of control | dose: 25.0 mg/kg/injection, schedule: Q04DX003 (ip), vehicle: saline 100 % of control | [11] 100 % of control | dose: 50.0 mg/kg/injection, schedule: Q04DX003 (ip), vehicle: saline 96 % of control | [12] 90 % of control | [13] 96 % of control

CCCNC(=O)Nc1cc(C(F)(F)F)ccc1Cl
inactive: dose: 100.0 mg/kg/injection, schedule: Q01DX009 (ip), vehicle: saline with Tween-80 98 % of control | [8] 97 % of control | dose: 200.0 mg/kg/injection, schedule: Q01DX009 (ip), vehicle: saline with Tween-80 88 % of control | [9] 103 % of control | dose: 400.0 mg/kg/injection, schedule: Q01DX009 (ip), vehicle: saline with Tween-80 87 % of control | [10] 108 % of control

O=S1(=O)CC(O)C(Cl)C1 (stereo not given)
inactive: [11] 101 % of control | [12] 94 % of control | [13] 98 % of control | dose: 200.0 mg/kg/injection, schedule: Q01DX009 (ip), vehicle: saline 94 % of control | dose: 200.0 mg/kg/injection, schedule: Q04DX003 (ip), vehicle: saline 94 % of control

CC1(C)N=C(N)N=C(N)N1c1ccc(OCC(=O)Nc2ccc(S(=O)(=O)F)cc2)c(Cl)c1
inactive: dose: 50.0 mg/kg/injection, schedule: Q01DX009 (ip), vehicle: carboxymethylcellulose (CMC) 106 % of control and 117 % of control | [11] 109 % of control | dose: 100.0 mg/kg/injection, schedule: Q01DX009 (ip), vehicle: carboxymethylcellulose (CMC) 114 % of control | dose: 400.0 mg/kg/injection, schedule: Q01DX009 (ip), vehicle: carboxymethylcellulose (CMC) 94 % of control | dose: 400.0 mg/kg/injection, schedule: Q01DX009 (ip), vehicle: saline 109 % of control

Cc1nc(N)c([N+](=O)[O-])cc1[N+](=O)[O-]
inactive: dose: 100.0 mg/kg/injection, schedule: Q01DX009 (ip), vehicle: acetone 100 % of control

CC1(C2C3OC(=O)C2C2(O)CC4OC45C(=O)OC3C25C)CO1 (stereo not given)
inactive: [3] 92 % of control | [4] 104 % of control | [14] 95 % of control

COc1c2c(cc3c(C)cc(=O)n(C)c13)c(C)cc(=O)n2C
inactive: [5] 99 % of control | [6] 92 % of control | [7] 101 % of control

CCc1ccc2c(c1)N(CCCN(CCCl)CCCl)c1ccccc1S2
inactive: dose: 1.56 mg/kg/injection, schedule: Q01DX009 (ip), vehicle: saline with Tween-80 107 % of control | dose: 3.12 mg/kg/injection, schedule: Q01DX001 (ip), vehicle: saline with Tween-80 97 % of control | dose: 3.12 mg/kg/injection, schedule: Q01DX009 (ip), vehicle: saline with Tween-80 102 % of control | dose: 6.25 mg/kg/injection, schedule: Q01DX001 (ip), vehicle: saline with Tween-80 97 % of control | dose: 6.25 mg/kg/injection, schedule: Q01DX009 (ip), vehicle: saline with Tween-80 100 % of control | dose: 6.25 mg/kg/injection, schedule: Q04DX003 (ip), vehicle: saline with Tween-80 110 % of control | dose: 12.5 mg/kg/injection, schedule: Q01DX001 (ip), vehicle: saline with Tween-80 111 % of control | dose: 12.5 mg/kg/injection, schedule: Q01DX009 (ip), vehicle: saline with Tween-80 102 % of control | dose: 12.5 mg/kg/injection, schedule: Q04DX003 (ip), vehicle: saline with Tween-80 111 % of control | dose: 25.0 mg/kg/injection, schedule: Q04DX003 (ip), vehicle: saline with Tween-80 111 % of control | dose: 50.0 mg/kg/injection, schedule: Q04DX003 (ip), vehicle: saline with Tween-80 111 % of control

CCCCOP(=O)(OCCCC)O/C(C)=C(\C)OP(=O)(OCCCC)OCCCC
inactive: dose: 87.5 mg/kg/injection, schedule: Q01DX009 (ip), vehicle: carboxymethylcellulose (CMC) 92 % of control | dose: 175.0 mg/kg/injection, schedule: Q01DX009 (ip), vehicle: carboxymethylcellulose (CMC) 98 % of control

CC(C)(C)c1cc(Br)c(O)c(C(=O)O)c1
inactive: dose: 200.0 mg/kg/injection, schedule: Q01DX001 (ip), vehicle: carboxymethylcellulose (CMC) 98 % of control

CC(CC(=O)C[N+](=O)[O-])=Nc1ccccc1
inactive: [15] 90 % of control | [16] 104 % of control | dose: 400.0 mg/kg/injection, schedule: Q04DX002 (ip), vehicle: Klucel (hydroxypropylcellulose) (HPC) 97 % of control

ClCCCCCCCCc1ccccc1
inactive: dose: 100.0 mg/kg/injection, schedule: Q01DX009 (ip), vehicle: saline sonified 105 % of control | dose: 100.0 mg/kg/injection, schedule: Q04DX003 (ip), vehicle: saline sonified 100 % of control | dose: 200.0 mg/kg/injection, schedule: Q01DX009 (ip), vehicle: saline sonified 102 % of control | dose: 200.0 mg/kg/injection, schedule: Q04DX003 (ip), vehicle: saline sonified 102 % of control | dose: 400.0 mg/kg/injection, schedule: Q01DX009 (ip), vehicle: saline sonified 107 % of control | dose: 400.0 mg/kg/injection, schedule: Q04DX003 (ip), vehicle: saline sonified 96 % of control

Cc1ncc(C#N)c(C)n1
inactive: [1] 107 % of control | [2] 102 % of control | dose: 400.0 mg/kg/injection, schedule: Q01DX001 (ip), vehicle: saline 107 % of control

N#Cc1nc2c3ccccc3c(N=NC(N)=S)c-2[nH]c1C#N
inactive: dose: 50.0 mg/kg/injection, schedule: Q04DX002 (ip), vehicle: Klucel (hydroxypropylcellulose) (HPC) 87 % of control | [15] 91 % of control | [16] 91 % of control

CC/C(C)=N\NC(=O)CC(=O)N/N=C(/C)CC
inactive: [14] 95 % of control | dose: 200.0 mg/kg/injection, schedule: Q01DX009 (ip), vehicle: Klucel (hydroxypropylcellulose) (HPC) 101 % of control | dose: 400.0 mg/kg/injection, schedule: Q01DX009 (ip), vehicle: Klucel (hydroxypropylcellulose) (HPC) 100 % of control

Cn1c2c(c3ccccc31)CC(C(C)(C)C)CC2 (stereo not given)
inactive: dose: 50.0 mg/kg/injection, schedule: Q04DX002 (ip), vehicle: saline with Tween-80 107 % of control | dose: 100.0 mg/kg/injection, schedule: Q04DX002 (ip), vehicle: saline with Tween-80 100 % of control | dose: 200.0 mg/kg/injection, schedule: Q04DX002 (ip), vehicle: saline with Tween-80 97 % of control
